Measurements as given in US8772329B2, “Compounds from mycelium of Antrodia cinnamomea and use thereof” (Simpson Biotech Co., Ltd., priority 2008, dated 2014).

What was measured:
HCV NS3/4A protease = biological target: T1, HCV NS3/4A protease (Hepatitis C virus genotype 1b, UniProt O92972); experiment: HCV protease inhibition assay (SensoLyte 520 HCV Protease Assay Kit, FRET peptide substrate); type: biochemical; settings: for IC50: enzyme 0.5 μg/ml, 30 min at room temperature (28° C.), read-out: IC50 against HCV protease (converted)
T1 construct: HCV NS3/4A protease; purchased AnaSpec, San Jose, Calif., USA lot# Lot 046-047 (screening); lot# Lot 046-079 (mechanism study); catalogue number not given
Excerpt: Since the mycelium of Antrodia cinnamomea was recently reported to be clinically effective for hepatitis patients infected with HCV (Akiba T et al. 2007. Clinical study of Shoshi on Japanese hepatitis patients infected with C type hepatitis virus. The second Taiwan and Japan Symposium on Antrodia cinnamomea, Abst. pp. 82-98), a SensoLyte™ 520 HCV protease assay kit was applied to investigate the HCV-protease inhibitory activity of the isolated antrodins, the metabolites of antrodin C as well as one metabolite analogue. The assay method with a quenched-fluorogenic peptide substrate can be used for measure the activity of inhibitors as well as for continuous recording of the progress of the enzyme reaction.
The mode of inhibition was kinetically analyzed by plotting the enzyme activity at different concentrations of the substrate (10, 50, 100 and 200 times dilution of the substrate stocking solution) with (5 μg/ml, and 10 μg/ml) and without [0 μg/ml (DMSO)] compound 1.
HCV NS3/4A protease (lot# Lot 046-047 for the screening and lot# Lot 046-079 for the mechanism study) and SensoLyte™ 520 HCV Protease Assay Kit *Fluorimetric* (lot# AK 71147-1005) were purchased from AnaSpec, San Jose, Calif., USA. The substrate was a 5-FAM/QXL™520 FRET peptide based on the sequence of Ac-Asp-Glu-Asp(EDANS)-Glu-Glu-Abu-Ψ-[COO]Ala-Ser-Lys(DABCYL)-NH2. The assay was carried out on BD Falcon™ Microtest™384-well 120 μl black assay plates (lot#05391155). Fluorescence was measured by TECAN GENios plate reader at excitation/emission 485/530 nm Chemical compounds. Antrodins A-E (compounds 1-5) were isolated from the mycelium of Antrodia cinnamomea as reported (Nakamura et al., 2004. Five new maleic and succinic acid derivatives from the mycelium of Antrodia comphorata and their cytotoxic effects on LLC tumor cell line. J Nat Prod 67: 46-48). Embelin used as a positive control was isolated in our laboratory in previous work (Hussein et al., 2000, Inhibitory effects of Sudanese medicinal plant extracts on hepatitis C virus (HCV) Protease. Phytother Res 14: 510-516). Compounds 6, 7a and 7b were detected as the metabolites of antrodin C in vivo. Compounds 7a and 7b were un-separable due to the equilibrium of these two compounds through compound 1. It was thus used for the assay as a mixture of compounds 1, 7a and 7b and named 7. Compound 8 was an analogue of another metabolite whose glycine group was supposed to connect to the other carboxyl group in the structure.
Compound 6 was dissolved in H2O and other compounds were dissolved in DMSO for the assay. To each well were added 2 μl of respective compound solution and 8 μl of freshly diluted enzyme (0.5 μg/ml). The reaction was started by adding 10 μl of freshly diluted substrate (100 times dilution of a DMSO stocking solution). After being incubated at room temperature (28° C.) for 30 min, the fluorescence intensities were measured at Ex/Em=485 nm/535 nm. Inhibition percentages were calculated as 100×(Fvehicle−Fsample)/Fvehicle=% inhibition, where F is the fluorescence value of vehicle control or of compound minus the fluorescence of the substrate control.

[1] = test system: Propionicbacterium acnes and lipopolysaccharide treated mice; settings: cited from earlier work
[2] = cited from earlier work

T1 sequence (O92972 1013-1207, looked up, natural form): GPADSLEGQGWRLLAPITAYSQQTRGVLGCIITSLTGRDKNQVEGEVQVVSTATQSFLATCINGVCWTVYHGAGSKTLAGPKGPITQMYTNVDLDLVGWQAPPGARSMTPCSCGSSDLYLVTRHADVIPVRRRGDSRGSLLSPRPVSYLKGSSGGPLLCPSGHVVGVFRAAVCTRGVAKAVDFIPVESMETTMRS

With `CC(C)=CCOc1ccc(C2=C(CC(C)C)C(=O)OC2=O)cc1` [Compound 1, 3-isobutyl-4-[4-(3-methyl-2-butenyloxy)phenyl]furan-2,5-dione] as the compound, how does the “mode of HCV PR inhibition (Lineweaver-Burk plot)” value (HCV NS3/4A protease; compound 1 at 0, 5 and 10 μg/ml, substrate 10, 50, 100 and 200 times dilution) read?
Its value is “competitive”.

What about the IC50 (HCV NS3/4A protease) of the same compound?
The IC50 was 2.86 µM.

For `CC(C)=CCOc1ccc(C2=C(CC(C)C)C(=O)NC2=O)cc1` [Compound 2, 3-isobutyl-4-[4-(3-methyl-2-butenyloxy)phenyl]-1H-pyrrol-2,5-dione], which IC50 (HCV NS3/4A protease) is on record?
Its IC50 is over 319 µM.

With `CC(C)=CCOc1ccc(C2=C(CC(C)C)C(=O)N(O)C2=O)cc1` [Compound 3, 3-isobutyl-4-[4-(3-methyl-2-butenyloxy)phenyl]-1H-pyrrol-1-ol-2,5-dione] as the compound, how does the IC50 (HCV NS3/4A protease) read?
The IC50 was 8.8 µM.

And the protective activity [1]?
Its protective activity is “showed protective activity”.

And the “detection of parent compound in the body” value ([2]; after absorption)?
The value was “could not be detected in the body after absorption”.

And the absorption ([2]; gastrointestinal tract)?
The absorption was “quickly absorbed from the gastrointestinal tract”.

What about the metabolization ([2]; liver) of the same compound?
The metabolization was “rapid and complete metabolization in liver”.

What about the “in vivo metabolism (metabolites formed)” value ([2]; metabolites: compounds 1, 2, 6, 7a, 7b and an analogue of compound 8) of the same compound?
Its value is “converted to six metabolites”.

With `CC(C)=CCOc1ccc(C2C(=O)N(O)C(=O)C2CC(C)C)cc1` (centres unmarked) [Compound 4, 3R*,4S*-1-hydroxy-3-isobutyl-4-[4-(3-methyl-2-butenyloxy)phenyl]pyrrolidine-2,5-dione] as the compound, how does the IC50 (HCV NS3/4A protease) read?
Its IC50 is 60.3 µM.

With `CC(C)=CCOc1ccc(C2C(=O)N(O)C(=O)C2CC(C)C)cc1` (centres unmarked) [Compound 5, 3R*,4R*-1-hydroxy-3-isobutyl-4-[4-(3-methyl-2-butenyloxy)phenyl]pyrrolidine-2,5-dione] as the compound, how does the IC50 (HCV NS3/4A protease) read?
The IC50 was 60.6 µM.

Which IC50 (HCV NS3/4A protease) does the source give for `CC(C)=CCOc1ccc(/C(C(=O)O)=C(\CC(C)C)C(=O)O)cc1` [Compound 6, (2Z)-2-isobutyl-3-{4-[(3-methylbut-2-en-1-yl)oxy]phenyl}but-2-enedioic acid] here?
The IC50 was 19.9 µM.

For `CC(C)=CCOc1ccc(/C(C(=O)NCC(=O)O)=C(\CC(C)C)C(=O)O)cc1` [Compound 8], which IC50 (HCV NS3/4A protease) is on record?
The IC50 was 148 µM.

For `CCCCCCCCCCCC1=C(O)C(=O)C=C(O)C1=O` [Embelin, reference compound], which IC50 (HCV NS3/4A protease) is on record?
The IC50 was 13.9 µM.
